The source of these data is a melting point compilation (Tetko et al.; mined from patent text by program, amines drawn as free bases though some values may be those of a salt).

For the compound `O=C1c2ccccc2C(=O)N1Nc1ccc(/C=C/C(c2cc(Cl)c(Cl)c(Cl)c2)C(F)(F)F)cc1` (stereo unspecified), the melting point was 187 to 189 °C.

Compound `C[C@H](NC(=O)CC1CCC(=O)CC1)c1ccccc1` gave a melting point of 110 to 151 °C.

Compound `CC1C(C/C=C/c2ccccc2)C(=O)N(Cc2ccccc2)c2ccccc2N1C(=O)CN1C(=O)c2ccccc2C1=O` (stereo unspecified) showed a melting point of 262 to 264 °C.

`Cc1nc(N2CCCC2=O)sc1C(=O)NCc1ccccc1` came in with a melting point of 222 to 224 °C.

Take `Nc1ccc(OCc2ccccc2)c2cnsc12`: the melting point was in the range of 126 to 128 °C.

In the case of `CC(C)c1cccc(C(C)C)c1NC(=O)CN1C(=O)N(c2ccc(C#N)cc2)C2(CCCCC2)C1=O`, the melting point is 280 to 282 °C.

With `CC(=Cc1ccc(C(C)C)cc1)COc1cc(C)c(NC=O)c(C)c1C`, the melting point lay in the range of 153 to 155 °C.

`COC(CN(C)C(=O)Nc1nnc(C(C)Oc2ccc(Cl)cc2)s1)OC` (stereo unspecified): the melting point lay in the range of 116 to 118 °C.

Turning to `C[C@H]1COc2c(N3C[C@@H](N)[C@@H](C4CC4)C3)c(F)cc3c(=O)c(C(=O)O)cn1c23`, the melting point is 218 to 220 °C.

The compound `COC(=O)CCCCCCCCCCCCCCCCCCCCCc1c(C)cc(OC)c(OC)c1O` came in with a melting point of 71 to 72.5 °C.

`Cc1ccc(-c2c[nH]c(-c3ccc4c(c3)C(C)(C)CCC4(C)C)c2)cc1`: the melting point was 190 to 192 °C.

`N#Cc1ccc(OCc2ccncc2)cc1OC(C(=O)O)c1ccccc1Cl` (racemic) had a melting point of 225 to 226 °C.

The compound `c1cn(Cc2ccc(OCc3nnn[nH]3)cc2)cn1` displayed a melting point of 189 to 191 °C.

Take `O=C(NCCCCCCOC(=O)N1CCC(OC(=O)NC2CCCCC2)CC1)Oc1ccc(Oc2ccccc2)cc1`: the melting point is 138 to 142 °C.

Compound `Nc1ccc(Br)cc1C(=O)NCCCn1ccnc1` had a melting point of 154 to 156 °C.

The compound `COc1ccc(CSc2cc(OC)c(OC)c(OC)c2)cc1` displayed a melting point of 65 to 67 °C.

`O=[N+]([O-])c1ccc(Oc2c(Cl)cc(C(F)(F)F)cc2Cl)cc1SCc1ccccc1` displayed a melting point of 207 °C.

The compound `CCCN(C(=S)NC(=O)c1ccccc1)C(CO)c1ccccc1` (stereo unspecified) yielded a melting point of 82 °C.

In turn, `O=C(OCc1ccccc1)[C@H](O)CCc1ccccc1` showed a melting point of 59 to 60 °C.

`BrCc1ccc(-c2cnn(-c3ccc(CBr)cc3)n2)cc1` had a melting point of 144 to 145 °C.

For the compound `CCOc1cc(C(O)CS(C)(=O)=O)cc(OCC)c1N` (stereo unspecified), the melting point lay within 166 to 168 °C.

For `CCOC(=O)c1ccc(NCCCc2c(N(C(C)=O)C(C)=O)nc(NC(C)=O)[nH]c2=O)cc1`, the melting point was in the range of 197 to 198 °C.

`COc1cc2c(cc1C(F)(F)F)N(C(=O)Nc1cccc(C(=O)Nc3cccnc3)c1)CC2` registered a melting point above 220 °C.

As for `C[C@]12C[C@H](c3ccc(OCCCCCCl)cc3)[C@@H]3c4ccc(O)cc4CC[C@H]3[C@@H]1CC[C@@H]2O`, the melting point is 165 °C.

Compound `Cc1cc(C(=Cc2nnnn2C)c2ccc(F)c(C)c2)ccc1F` displayed a melting point of 138 to 139 °C.

`COc1cccc(-c2cnc3c(-c4cc(-c5ccccc5)cs4)cnn3c2O)c1` returned a melting point above 300 °C.

Compound `CC1(C)OCCC2C(C3(O)CCSC3)C(=O)N21` (stereo unspecified) returned a melting point of 113 to 115 °C.

Consider `O=c1n(CCCN2CCN(c3ccccc3)CC2)nc2n1-c1ccccc1OC2`, for which the melting point lay within 94 to 96 °C.

For `CN1CCN(C(=O)OC2c3cc(Cl)ccc3C(=O)N2c2ccc3ccc(Cl)nc3n2)CC1` (stereo unspecified), the melting point turned out to be 280 °C.

With `CCn1cc(Br)nc(S(=O)(=O)Cc2ccc(Cl)cc2)c1=O`, the melting point fell in the range of 145 to 147 °C.

`Nc1ccc(C(=O)CCCCOCc2ccccc2)cc1` had a melting point of 72 °C.

In turn, `O=S1(=O)N=C(NCCCCc2ccccc2)Nc2cc(Cl)sc21` returned a melting point of 201 to 205 °C.

With `CC(Cl)c1nc2ccccc2c(=O)o1` (stereo unspecified), the melting point amounted to 90 °C.

In turn, `OCCCCNc1nnc(-c2ccc(F)c(F)c2Nc2ccc(I)cc2F)o1` had a melting point of 82 to 83 °C.

For the compound `CCCCC[C@H]1CC[C@H](c2ccc(CC#N)cc2)CC1`, the melting point turned out to be 53 °C.

`Fc1ccc(Cn2c(NC3CCN(CCNc4ncc[nH]4)CC3)nc3ccccc32)cc1`: the melting point stood at 226 °C.

Compound `CC1(C)C=C(CC(=O)O)C(C)(C)CC1` registered a melting point of 50 to 54 °C.

The compound `Clc1ccccc1-c1n[nH]cc1Br` gave a melting point of 80 °C.

Take `CCOC(=O)c1c(CCl)nc2cc(OC)c(OC)cc2c1-c1ccc(Cl)c(Cl)c1`: the melting point lay in the range of 159 to 160 °C.

On to `Cn1nnc(-c2ccc3c(c2)c(C2=CCN(CCN4CCNC4=O)CC2)cn3-c2ccncc2)n1`, for which the melting point lay in the range of 177 to 178 °C.

Consider `CN(C)C1CCN(Cc2ccc(COc3cccc4c3CN(C3CCC(=O)NC3=O)C4=O)cc2)CC1` (stereo unspecified), for which the melting point is 209 to 211 °C.

`CCCCCCCCCCCCCCCCCC(O)c1ccc(Cl)c(C(=O)O)c1` (stereo unspecified) showed a melting point of 106 to 107 °C.

As to `CCOC(=O)Nc1ccc(N2CCN([C@H](C)[C@](O)(Cn3cncn3)c3ccc(F)cc3F)CC2)cc1`, the melting point lay within 90 to 92 °C.

For `CCOC(=O)c1cc(-c2ccc(C(F)(F)F)cc2)n[nH]1`, the melting point amounted to 162 °C.

Compound `COc1ccc(Cc2ccc3[nH]c(=S)[nH]c3c2)c(O)c1` yielded a melting point of 248 to 250 °C.

With `O=c1c2ccc(Cl)cc2oc2c(OCc3ccccc3)cccc12`, the melting point was determined as 154 °C.

Compound `CS(=O)(=O)OCC(CC1CCCCC1)c1ccc(Cl)cc1Cl` (stereo unspecified) gave a melting point of 105 °C.

`COC(=O)C(C)(C)C(=O)c1ccc(-n2cncn2)cc1` gave a melting point of 84 to 85 °C.

Take `CC(=O)Cc1ccc(O)cn1`: the melting point was in the range of 119 to 120 °C.

Turning to `Cc1nc2n(c(=O)c1CCO)CCS2`, the melting point was 149 °C.

The compound `Cc1c(-n2ccnc2)n(CCCCCCCC(=O)O)c2ccccc12` displayed a melting point of 101 to 103 °C.

For the compound `CC(=O)N1C(=O)N(c2cc(Cl)cc(Cl)c2)C(=O)C1=Cc1ccc(C#N)cc1`, the melting point is 212 °C.

Turning to `COc1ccc(-n2cnc3c(OC)nc4ccccc4c32)cc1`, the melting point lay within 180 to 182 °C.

`CC(=O)Nc1ccc(C(=O)O)c([N+](=O)[O-])c1` showed a melting point of 217 to 220 °C.

Compound `COc1cc(C=O)ccc1OCc1nc(-c2cccnc2)oc1C` registered a melting point of 164 to 165 °C.

As for `CC(=O)NC[C@H]1CN(c2ccc(N3CCN(CCN4CCCCC4)CC3)c(F)c2)C(=O)O1`, the melting point fell in the range of 169 to 170 °C.

In the case of `O=C(O)c1ccc(NC(=O)C(c2ccc(Cl)cc2)c2ccc(Cl)cc2)cc1`, the melting point lay within 272 to 274 °C.

In turn, `O=C(O)CCCCN(C(=O)c1ccc(Cl)cc1)c1ccc2c(c1)CCC2` showed a melting point of 132 to 134 °C.

On to `CCCC(=O)Nc1cccc(C(c2c(O)c3c(oc2=O)CCCCCC3)C2CC2)c1` (stereo unspecified), for which the melting point lay within 222 to 224 °C.

`O=C1CCNC(=O)C1C(=O)c1ccccc1` (stereo unspecified) gave a melting point of 164 to 165 °C.

With `CCOC(=O)C(NC(C)=O)c1csc(NC(C)=O)n1` (stereo unspecified), the melting point lay in the range of 149 to 150 °C.

`COC(=O)C1(N2CCCCC2)CCN(Cc2ccccc2)CC1`: the melting point was found to be 84.7 °C.

In the case of `NS(=O)(=O)OCCOc1cccc(-n2ccnc2)c1`, the melting point was 149 to 150 °C.

As for `CC(C)c1c(S(=O)(=O)c2ccc(O)cc2)cnn1C`, the melting point is 209 to 210 °C.

The compound `CNC(=O)N1N=C(c2ccc([N+](=O)[O-])cc2)c2cc(Cl)c(Cl)cc2CC1C` (stereo unspecified) had a melting point of 221 to 223 °C.

Consider `Cc1cc(N)n(C(CCc2ccccc2)=NO)n1`, for which the melting point lay in the range of 138 to 140 °C.

`Brc1ccc(Br)c2nonc12`: the melting point lay within 88 to 92 °C.

For the compound `Cc1cccn2c(C)c(-c3ccc4c(c3)NC(=O)C(C)O4)nc12` (stereo unspecified), the melting point was in the range of 249 to 250 °C.

`CC(C)c1cc2cc(OCC(=O)O)c(Cl)c(Cl)c2s1` registered a melting point of 168 to 170 °C.

In turn, `c1cc2[nH]ncc2cc1NC1CC2CCC(C1)N2` (stereo unspecified) displayed a melting point of 236 to 238 °C.

As for `NC(c1ccnc(F)c1)C(O)c1cccc(C(F)(F)F)c1` (stereo unspecified), the melting point is 128 to 129 °C.

`CCCCCCCCC=CCCCCCCCCCCCCNC(=O)C=CC(=O)O` had a melting point of 55 °C.

In turn, `O=C(O)COc1ccc(C2=CC(=O)CC(c3ccccc3)C2)c(Cl)c1Cl` (stereo unspecified) returned a melting point of 197 to 199 °C.

With `CCNC(=O)c1sc(SC)cc1[Si](C)(C)C`, the melting point fell in the range of 58 to 61 °C.

For the compound `CC(=O)Oc1c(C(=O)N2CCc3ccccc32)c(=O)n2c3c(cc(N)cc13)OCC2`, the melting point fell in the range of 220 to 225 °C.

Compound `CCCCCCCCc1ncc(-c2ccc(O)cc2)cn1` had a melting point of 94 to 96 °C.

Compound `N#CCCCSc1nccc(NC(N)=NCC(F)(F)F)n1` gave a melting point of 137 °C.

Take `CC(C)(C)C=C/C=C/C(C)(C)C`: the melting point lay in the range of 78 to 79 °C.

Compound `COC(=O)c1cc(Cl)sc1S(=O)(=O)Cl` showed a melting point of 95 to 97 °C.

As to `CCOC(=O)CCC(=O)c1cccc(C(=O)c2ccc(Cl)cc2)c1N`, the melting point was in the range of 112 to 115 °C.

`N=C(N)NC(=O)Cn1c(Cc2ccco2)ccc1-c1ccccc1`: the melting point was 80 to 82 °C.

`COc1cc(C(=O)Nc2nnn[nH]2)nc(-c2ccc(N(C)C)cc2)c1` displayed a melting point of 261 to 263 °C.

With `O=C1NCC=NN1c1cc(C(F)(F)F)cc(Cl)n1`, the melting point is 197 to 198 °C.

On to `O=C(c1ccncc1)c1cccc(NC(=O)c2ccn3c2CSC3c2cccnc2)c1` (stereo unspecified), for which the melting point was determined as 186 °C.

In turn, `NC(=O)CCCCCc1ccc(Cl)cc1` had a melting point of 87 to 89 °C.

For `O=C(NCCCl)Nc1ccc2cn[nH]c2c1`, the melting point fell in the range of 253 to 258 °C.

`O=c1oc2ccccc2c(O)c1C1CC(c2ccc(Cc3ccc(-c4ccccc4)cc3)cc2)Cc2ccccc21` (stereo unspecified) showed a melting point of 118 to 121 °C.

Compound `CCc1c(OCc2ccccc2)nc(OCc2ccccc2)nc1C(=O)c1cc(C)cc(C#N)c1` had a melting point of 123 to 124 °C.

`CCOC(=O)Cc1ccc(NC(=O)C(Cn2ccnc2)NS(=O)(=O)c2ccc(F)cc2)cc1` (racemic) returned a melting point of 155 to 157 °C.

The compound `O=C(CCCCC1CCN(Cc2ccccc2)CC1)c1ccc(F)cc1` came in with a melting point of 67 to 68 °C.

As to `Cc1ccc(-c2nc3ccc(N(C)C)cn3c2CN(C)C(=O)CC(C)C)cc1`, the melting point lay in the range of 200 to 202 °C.
